Results taken from US20220380341A1, “INHIBITORS OF HIV-1 NEF FOR THE TREATMENT OF HIV DISEASE” (priority 2018, published 2022).
Where two headings read alike, the source gives them in different places.

Columns and labels:
[1] = tested on: HIV-1NL4-3; assay: HIV-1 infectivity assay in TZM-bl reporter cell line (LTR-luciferase, 48 h); assay type: cell-based; conditions: for inhibition at 1 µM: Human immunodeficiency virus 1, TZM-bl
Summary of the method: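 TZM-bl cells (HIV-1 LTR-luciferase) infected with HIV-1NL4-3 with compound at 1 μM; luciferase read 48 h later. Percent inhibition normalized to DMSO wild-type infection (0%) and Nef-defective HIV-1 infection (100% of Nef-dependent effect). Viability in uninfected TZM-bl cells by Cell Titer Blue.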

[2] = molecular target: HIV-1 NefNL4-3 (Human immunodeficiency virus type 1 group M subtype B, UniProt P03406, A33V/T15A/T51N/V11I); assay: Surface plasmon resonance binding to recombinant full-length Nef (NL4-3); conditions: for RU30/RUNef (extent of binding): response units at 30 μM relative to Nef immobilized on the SPR chip
[3] = tested on: TZM-bl cell line; assay type: cell-based
Summary of the method: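 Nef-dependent infectivity in TZM-bl cells: HIV-1NL4-3 infection with 1 μM compound, luciferase read at 48 h, normalized against DMSO wild-type and Nef-defective controls. Compound cytotoxicity in uninfected cells measured by Cell Titer Blue.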

[4] = 1.0 μM, TZM-bl reporter cell line, Table 4, read-out: % Infectivity Inhibition
[5] = 48 h, Table 1, TZM-bl cells, 1 μM, 48 h, 100% = Nef-defective HIV-1, read-out: HIV-1 Infectivity % Inhibition Norm. to Δ-Nef @ 1 μM
[6] = KD, M, Table 4, SPR fit 1:1 Langmuir, KD = koff/kon
[7] = Table 4, 1:1 Langmuir fit, T = 1/koff
[8] = KD, M, Table 4, SPR fit 2-step induced fit, KD = koff/kon × koff2/(koff2 + kon2)
[9] = Nef NL4-3 Binding, SPR 2-state fitting KD, Table 1, 2-step induced-fit model
[10] = Table 1, 1:1 Langmuir fit where the KD2 cell says '1 to 1 fitting', else 2-site fit

| Compound | inhibition at 1 µM [1, 4] [%] | inhibition at 1 µM [1, 5] [%] | Kd [2] [µM] | RU30/RUNef (extent of binding) [2] [E- 03] | % Cell Viability ([3]; human, 1 μM) [%] | Percent Viability @ 1 μM (TZM-bl cells) ([3]; human, 1 μM) [%] | also measured |
| --- | --- | --- | --- | --- | --- | --- | --- |
| O=S(=O)(c1cccnc1)N1CCCC(c2nn(-c3nc4ccccc4[nH]3)c(O)c2CCc2ccc(F)cc2)C1 (stereo not drawn) [Compound I-758, 1-(1H-1,3-benzodiazol-2-yl)-4-[2-(4-fluorophenyl)ethyl]-3-[1-(pyridine-3-sulfonyl)piperidin-3-yl]-1H-pyrazol-5-ol] | 54.9 | 54.9 | 0.0631 | 2.95 | 99.8 | 99.8 | Kd [2, 6]: 0.0681 µM; T, minutes (residence time) [2, 7]: 9.21E + 01 minutes |
| O=C(c1cnccn1)N1CCCC1c1nn(-c2nc3ccccc3[nH]2)c(O)c1CCc1ccc(F)cc1 (stereo not drawn) [Compound I-759, 1-(1H-1,3-benzodiazol-2-yl)-4-[2-(4-fluorophenyl)ethyl]-3-[1-(pyrazine-2-carbonyl)pyrrolidin-2-yl]-1H-pyrazol-5-ol] | – | -7.6 | 0.221 | – | – | 98.2 | – |
| O=C(Cc1ccncc1)N1CCCC1c1nn(-c2nc3ccccc3[nH]2)c(O)c1CCc1ccc(F)cc1 (stereo not drawn) [Compound I-760, 1-{2-[1-(1H-1,3-benzodiazol-2-yl)-4-[2-(4-fluorophenyl)ethyl]-5-hydroxy-1H-pyrazol-3-yl]pyrrolidin-1-yl}-2-(pyridin-4-yl)ethan-1-one] | 46.5 | 46.5 | 0.78 | 1.38 | 96.8 | 96.8 | Kd [2, 6]: 0.78 µM; T, minutes (residence time) [2, 7]: 7.31E + 00 minutes |
| CC(C)(O)C(=O)N1CCCC1c1nn(-c2nc3ccccc3[nH]2)c(O)c1CCc1ccc(F)cc1 (stereo not drawn) [Compound I-761, 1-{2-[1-(1H-1,3-benzodiazol-2-yl)-4-[2-(4-fluorophenyl)ethyl]-5-hydroxy-1H-pyrazol-3-yl]pyrrolidin-1-yl}-2-hydroxy-2-methylpropan-1-one] | – | -3.8 | 0.854 | – | – | 101.5 | – |
| O=C(c1c(O)cc(O)cc1O)N1CCCC1c1nn(-c2nc3ccccc3[nH]2)c(O)c1CCc1ccc(F)cc1 (stereo not drawn) [Compound I-762, 2-{2-[1-(1H-1,3-benzodiazol-2-yl)-4-[2-(4-fluorophenyl)ethyl]-5-hydroxy-1H-pyrazol-3-yl]pyrrolidine-1-carbonyl}benzene-1,3,5-triol] | 25.7 | 25.7 | 0.277 | – | 98.6 | 98.9 | Kd [2, 8]: 0.00398 µM; Kd [2, 9]: 0.00398 µM; Kd ([2]; read-out: Nef NL4-3 Binding, SPR 1:1 or 2-site fitting KD2, Table 1, 2-site fit, second component): 7.46 µM |
| O=C(CN1CCOCC1)N1CCCC1c1nn(-c2nc3ccccc3[nH]2)c(O)c1CCc1ccc(F)cc1 (stereo not drawn) [Compound I-763, 1-{2-[1-(1H-1,3-benzodiazol-2-yl)-4-[2-(4-fluorophenyl)ethyl]-5-hydroxy-1H-pyrazol-3-yl]pyrrolidin-1-yl}-2-(morpholin-4-yl)ethan-1-one] | – | 11 | 0.422 | – | – | 97.6 | – |
| O=C(OCc1ccccc1)N1CCC(Cc2nn(-c3nc4ccccc4[nH]3)c(O)c2CCc2ccc(F)cc2)CC1 [Compound I-764, benzyl4-{[1-(1H-1,3-benzodiazol-2-yl)-4-[2-(4-fluorophenyl)ethyl]-5-hydroxy-1H-pyrazol-3-yl]methyl}piperidine-1-carboxylate] | – | 47.4 | – | – | – | 100.6 | Nef NL4-3 Binding, SPR 1:1 or 2-site fitting KD1 [2, 10]: No Interaction |
| O=C(C1CCOC1)N1CCC(Cc2nn(-c3nc4ccccc4[nH]3)c(O)c2CCc2ccc(F)cc2)CC1 (stereo not drawn) [Compound I-765, 1-(1H-1,3-benzodiazol-2-yl)-4-[2-(4-fluorophenyl)ethyl]-3-{[1-(oxolane-3-carbonyl)piperidin-4-yl]methyl}-1H-pyrazol-5-ol] | – | 13.5 | – | – | – | 99.3 | Nef NL4-3 Binding, SPR 1:1 or 2-site fitting KD1 [2, 10]: No Interaction |
| O=C(c1cccc(O)n1)N1CCC(Cc2nn(-c3nc4ccccc4[nH]3)c(O)c2CCc2ccc(F)cc2)CC1 [Compound I-766, 6-(4-{[1-(1H-1,3-benzodiazol-2-yl)-4-[2-(4-fluorophenyl)ethyl]-5-hydroxy-1H-pyrazol-3-yl]methyl}piperidine-1-carbonyl)pyridin-2-ol] | – | 46.9 | 0.481 | – | – | 99.5 | – |
| O=C(c1cnccn1)N1CCC(Cc2nn(-c3nc4ccccc4[nH]3)c(O)c2CCc2ccc(F)cc2)CC1 [Compound I-767, 1-(1H-1,3-benzodiazol-2-yl)-4-[2-(4-fluorophenyl)ethyl]-3-{[1-(pyrazine-2-carbonyl)piperidin-4-yl]methyl}-1H-pyrazol-5-ol] | – | 18.9 | 0.425 | – | – | 97.6 | – |
| CN1CCN(CC(=O)N2CCC(Cc3nn(-c4nc5ccccc5[nH]4)c(O)c3CCc3ccc(F)cc3)CC2)CC1 [Compound I-768, 1-(4-{[1-(1H-1,3-benzodiazol-2-yl)-4-[2-(4-fluorophenyl)ethyl]-5-hydroxy-1H-pyrazol-3-yl]methyl}piperidin-1-yl)-2-(4-methylpiperazin-1-yl)ethan-1-one] | – | -34.5 | 3.84 | – | – | 99.8 | – |
| O=C(COCc1ccncc1)N1CCC(Cc2nn(-c3nc4ccccc4[nH]3)c(O)c2CCc2ccc(F)cc2)CC1 [Compound I-769, 1-(4-{[1-(1H-1,3-benzodiazol-2-yl)-4-[2-(4-fluorophenyl)ethyl]-5-hydroxy-1H-pyrazol-3-yl]methyl}piperidin-1-yl)-2-[(pyridin-4-yl)methoxy]ethan-1-one] | – | – | – | 4.88 | – | – | % Infectivity Inhibition ([1]; 1.0 μM, TZM-bl reporter cell line, Table 4): 26.5%; HIV-1 Infectivity % Inhibition Norm. to Δ-Nef @ 1 μM ([1]; Table 1, TZM-bl cells, 1 μM, 48 h, 100% = Nef-defective HIV-1): 26.5%; Kd ([2]; Table 1, 1:1 Langmuir fit where the KD2 cell says '1 to 1 fitting', else 2-site fit, read-out: Nef NL4-3 Binding, SPR 1:1 or 2-site fitting KD1): 0.798 µM; T, minutes (residence time) [2, 7]: 9.47E + 00 minutes; Kd ([2]; Table 4, SPR fit 1:1 Langmuir, KD = koff/kon, read-out: KD): 0.798 µM; % Cell Viability ([3]; 1.0 μM, uninfected TZM-bl, CellTiter-Blue, Table 4): 98.8%; Percent Viability @ 1 μM (TZM-bl cells) ([3]; Table 1, uninfected TZM-bl cells, 1 μM, Cell Titer Blue): 98.8% |
| CC(C)(C)OC(=O)N1CCC(Cc2nn(-c3nc4ccccc4[nH]3)c(O)c2CCc2ccc(F)cc2)CC1 [Compound I-770] | 49.2 | 49.2 | 0.00105 | 3.04 | 99.7 | 99.7 | Kd [2, 6]: 0.00105 µM; T, minutes (residence time) [2, 7]: 1.65E + 04 minutes |
| CS(=O)(=O)N1CCC(Cc2nn(-c3nc4ccccc4[nH]3)c(O)c2CCc2ccc(F)cc2)CC1 [Compound I-771, 1-(1H-1,3-benzodiazol-2-yl)-4-[2-(4-fluorophenyl)ethyl]-3-[(1-methanesulfonylpiperidin-4-yl)methyl]-1H-pyrazol-5-ol] | – | 13.1 | 0.965 | – | – | 100.1 | – |
| CC(=O)N1CCC(Cc2nn(-c3nc4ccccc4[nH]3)c(O)c2CCc2ccc(F)cc2)CC1 [Compound I-772, 1-(4-{[1-(1H-1,3-benzodiazol-2-yl)-4-[2-(4-fluorophenyl)ethyl]-5-hydroxy-1H-pyrazol-3-yl]methyl}piperidin-1-yl)ethan-1-one] | – | 49.6 | 0.858 | – | – | 100.1 | – |
| O=C(OCc1ccccc1)N1CCCC(Cc2nn(-c3nc4ccccc4[nH]3)c(O)c2CCc2ccc(F)cc2)C1 (stereo not drawn) [Compound I-773, benzyl 3-{[1-(1H-1,3-benzodiazol-2-yl)-4-[2-(4-fluorophenyl)ethyl]-5-hydroxy-1H-pyrazol-3-yl]methyl}piperidine-1-carboxylate] | – | 25.5 | 0.0559 | – | – | 101.8 | – |
| O=S(=O)(NCc1nn(-c2nc3ccccc3[nH]2)c(O)c1CCc1ccc(F)cc1)c1cccnc1 [Compound I-774, N-{[1-(1H-1,3-benzodiazol-2-yl)-4-[2-(4-fluorophenyl)ethyl]-5-hydroxy-1H-pyrazo1-3-y1]methyl}pyridine-3-sulfonamide] | 0 | -0.1 | 0.252 | 2.56 | 94.4 | 94.4 | Kd [2, 8]: 0.0275 µM; Kd [2, 9]: 0.0275 µM; T, minutes (residence time) ([2]; Table 4, 2-step induced fit, T = 1/koff2): 1.09E + 02 minutes |
| CS(=O)(=O)N1CCC(CCc2c(-c3ccc(C(F)(F)F)cn3)nn(-c3nc4cc(Br)ccc4[nH]3)c2O)CC1 [Compound I-775, 1-(5-bromo-1H-1,3-benzodiazol-2-yl)-4-[2-(1-methanesulfonylpiperidin-4-yl)ethyl]-3-[5-(trifluoromethyl)pyridin-2-yl]-1H-pyrazol-5-ol] | 62.1 | 62.1 | 0.316 | 1.62 | 72.9 | 72.9 | Kd [2, 6]: 0.316 µM; T, minutes (residence time) [2, 7]: 4.26E + 01 minutes |
